This note sets out measurements from ChEMBL document CHEMBL5465560, “Selectivity Literature for EUbOPEN Chemogenomic Library” (2024).

Assay [1] addresses Tyrosine-protein kinase CSK (Homo sapiens) (UniProt P41240). The conditions noted are these: at 10 µM.
In assay [2] the target is NT-3 growth factor receptor (Homo sapiens, UniProt Q16288). Nature of the assay: Selectivity interaction (KinomeScan (DiscoverX)) EUB0000666a NTRK3. The conditions noted are these: at 10 µM.
Assay [3] deals with Proto-oncogene tyrosine-protein kinase receptor Ret (Homo sapiens, UniProt P07949). Nature of the assay: (§1) Selectivity interaction (SelectScreen profiling (Invitrogen)) EUB0000607a RET. The conditions noted are these: at 2 µM.
Assay [4] deals with Proto-oncogene tyrosine-protein kinase receptor Ret (Homo sapiens), P07949 [V804L]. Described as §1. Particulars: at 2 µM.
Assay [5] deals with Proto-oncogene tyrosine-protein kinase receptor Ret (Homo sapiens), P07949 [Y791F]. The description is as §1. Particulars: at 2 µM.
Assay [6] has as its target T1, Serine/threonine-protein kinase 17A (Homo sapiens) (UniProt Q9UEE5).
T1 sequence (whole entry): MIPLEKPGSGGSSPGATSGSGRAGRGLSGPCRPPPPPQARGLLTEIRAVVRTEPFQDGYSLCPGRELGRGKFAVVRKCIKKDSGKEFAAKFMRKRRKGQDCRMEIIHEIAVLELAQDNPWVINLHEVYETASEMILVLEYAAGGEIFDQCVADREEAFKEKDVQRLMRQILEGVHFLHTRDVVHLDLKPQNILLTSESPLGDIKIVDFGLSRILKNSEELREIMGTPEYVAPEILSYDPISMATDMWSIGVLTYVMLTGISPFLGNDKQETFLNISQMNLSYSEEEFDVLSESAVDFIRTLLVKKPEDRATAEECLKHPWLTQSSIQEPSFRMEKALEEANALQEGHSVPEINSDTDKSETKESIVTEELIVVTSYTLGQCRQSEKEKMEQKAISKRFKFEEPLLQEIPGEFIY
Nature of the assay: Selectivity interaction (Kinase panel (Invitrogen)) EUB0000639a STK17A. Particulars: at 200 nM.

Assay [7] deals with T2, Serine/threonine-protein kinase NLK (Homo sapiens) (UniProt Q9UBE8).
T2 sequence (whole entry): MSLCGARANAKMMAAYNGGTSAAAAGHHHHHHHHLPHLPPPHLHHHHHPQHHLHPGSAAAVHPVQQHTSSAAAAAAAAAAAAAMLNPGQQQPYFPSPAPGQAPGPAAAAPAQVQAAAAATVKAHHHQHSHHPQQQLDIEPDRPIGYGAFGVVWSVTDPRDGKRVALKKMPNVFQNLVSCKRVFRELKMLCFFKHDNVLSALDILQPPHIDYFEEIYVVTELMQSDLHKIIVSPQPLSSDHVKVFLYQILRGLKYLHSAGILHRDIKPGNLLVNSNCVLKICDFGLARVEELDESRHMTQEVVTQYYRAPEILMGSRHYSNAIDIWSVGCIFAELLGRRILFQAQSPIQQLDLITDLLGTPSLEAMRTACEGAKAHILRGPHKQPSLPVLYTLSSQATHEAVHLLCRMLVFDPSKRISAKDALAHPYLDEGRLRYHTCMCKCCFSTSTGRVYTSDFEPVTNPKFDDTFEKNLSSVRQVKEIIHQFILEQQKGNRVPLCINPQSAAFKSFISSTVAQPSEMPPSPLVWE
Nature of the assay: Selectivity interaction (Ambit KINOMEscan and KiNATiv profiling in Jurkat cells) EUB0000090b NLK. Type of assay: cell-based. The conditions noted are these: at 1 µM.

Assay [8] addresses Mitogen-activated protein kinase 14 (Homo sapiens, UniProt Q16539). Nature of the assay: Selectivity interaction (Upstate Kinase Profiler service (Millipore)) EUB0000056c MAPK14. The conditions noted are these: at 1 µM.
Assay [9] deals with Muscarinic acetylcholine receptor M3 (Homo sapiens, UniProt P20309). Nature of the assay: Selectivity interaction (Muscarinic M3 receptor assay, human recombinant ) EUB0000877a CHRM3.
For assay [10], the target named is Serine/threonine-protein kinase pim-3 (Homo sapiens) (UniProt Q86V86). Briefly: Selectivity interaction (KinomeScan (DiscoverX)) EUB0000655a PIM3. The conditions noted are these: at 10 µM.
In assay [11] the target is T3, Serine/threonine-protein kinase D1 (Homo sapiens) (UniProt Q15139).
T3 sequence (whole entry): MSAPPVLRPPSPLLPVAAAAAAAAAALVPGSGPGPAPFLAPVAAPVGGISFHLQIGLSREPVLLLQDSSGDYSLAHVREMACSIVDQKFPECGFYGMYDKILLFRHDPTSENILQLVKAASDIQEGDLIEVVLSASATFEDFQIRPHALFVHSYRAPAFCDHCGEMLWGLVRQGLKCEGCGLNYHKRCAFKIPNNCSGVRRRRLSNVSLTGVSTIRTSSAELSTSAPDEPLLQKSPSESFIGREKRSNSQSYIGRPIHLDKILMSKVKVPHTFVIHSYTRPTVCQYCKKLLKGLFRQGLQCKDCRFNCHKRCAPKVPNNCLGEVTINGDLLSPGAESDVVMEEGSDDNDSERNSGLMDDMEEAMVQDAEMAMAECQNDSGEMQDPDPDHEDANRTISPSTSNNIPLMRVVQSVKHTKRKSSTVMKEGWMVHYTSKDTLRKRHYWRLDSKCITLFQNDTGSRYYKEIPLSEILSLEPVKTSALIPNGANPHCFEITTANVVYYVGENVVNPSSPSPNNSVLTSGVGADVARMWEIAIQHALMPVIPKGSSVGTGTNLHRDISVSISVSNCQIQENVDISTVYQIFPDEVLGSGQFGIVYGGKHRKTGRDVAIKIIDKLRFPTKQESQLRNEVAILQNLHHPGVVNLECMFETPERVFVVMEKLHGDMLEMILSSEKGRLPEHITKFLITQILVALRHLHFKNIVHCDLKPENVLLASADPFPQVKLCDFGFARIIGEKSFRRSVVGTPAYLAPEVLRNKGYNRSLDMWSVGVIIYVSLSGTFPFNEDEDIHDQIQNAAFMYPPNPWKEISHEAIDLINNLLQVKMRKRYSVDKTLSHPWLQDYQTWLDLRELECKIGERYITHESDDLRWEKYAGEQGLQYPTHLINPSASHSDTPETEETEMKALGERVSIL
Briefly: Selectivity interaction (KinomeScan (DiscoverX)) EUB0000655a PRKD1. The conditions noted are these: at 10 µM.

Some results are limits rather than exact numbers.

For orientation: IC50 means the concentration that inhibits the measured activity by half.

Sequence of NT-3 growth factor receptor (Q16288 32-839 limits assumed): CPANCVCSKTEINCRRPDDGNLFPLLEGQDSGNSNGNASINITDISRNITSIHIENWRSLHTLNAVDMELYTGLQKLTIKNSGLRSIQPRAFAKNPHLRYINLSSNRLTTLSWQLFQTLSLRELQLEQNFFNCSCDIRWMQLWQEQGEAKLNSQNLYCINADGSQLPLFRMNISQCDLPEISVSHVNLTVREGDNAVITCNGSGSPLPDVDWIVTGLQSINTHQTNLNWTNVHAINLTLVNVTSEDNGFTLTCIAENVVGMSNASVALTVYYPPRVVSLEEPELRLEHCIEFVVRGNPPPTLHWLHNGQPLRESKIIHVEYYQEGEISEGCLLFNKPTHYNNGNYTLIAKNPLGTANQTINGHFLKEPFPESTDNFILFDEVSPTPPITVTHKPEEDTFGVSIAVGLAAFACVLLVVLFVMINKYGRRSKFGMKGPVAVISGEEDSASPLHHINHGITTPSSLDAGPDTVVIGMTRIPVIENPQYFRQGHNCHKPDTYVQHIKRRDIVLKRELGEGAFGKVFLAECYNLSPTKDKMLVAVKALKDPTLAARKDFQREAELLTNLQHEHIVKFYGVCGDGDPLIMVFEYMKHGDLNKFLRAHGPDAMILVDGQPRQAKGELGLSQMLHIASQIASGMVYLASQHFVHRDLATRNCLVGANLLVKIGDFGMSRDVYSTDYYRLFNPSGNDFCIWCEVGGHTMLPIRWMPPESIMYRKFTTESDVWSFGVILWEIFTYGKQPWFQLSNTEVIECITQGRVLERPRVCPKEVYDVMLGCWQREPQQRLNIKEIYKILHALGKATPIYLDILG
Sequence of Proto-oncogene tyrosine-protein kinase receptor Ret (P07949 whole entry): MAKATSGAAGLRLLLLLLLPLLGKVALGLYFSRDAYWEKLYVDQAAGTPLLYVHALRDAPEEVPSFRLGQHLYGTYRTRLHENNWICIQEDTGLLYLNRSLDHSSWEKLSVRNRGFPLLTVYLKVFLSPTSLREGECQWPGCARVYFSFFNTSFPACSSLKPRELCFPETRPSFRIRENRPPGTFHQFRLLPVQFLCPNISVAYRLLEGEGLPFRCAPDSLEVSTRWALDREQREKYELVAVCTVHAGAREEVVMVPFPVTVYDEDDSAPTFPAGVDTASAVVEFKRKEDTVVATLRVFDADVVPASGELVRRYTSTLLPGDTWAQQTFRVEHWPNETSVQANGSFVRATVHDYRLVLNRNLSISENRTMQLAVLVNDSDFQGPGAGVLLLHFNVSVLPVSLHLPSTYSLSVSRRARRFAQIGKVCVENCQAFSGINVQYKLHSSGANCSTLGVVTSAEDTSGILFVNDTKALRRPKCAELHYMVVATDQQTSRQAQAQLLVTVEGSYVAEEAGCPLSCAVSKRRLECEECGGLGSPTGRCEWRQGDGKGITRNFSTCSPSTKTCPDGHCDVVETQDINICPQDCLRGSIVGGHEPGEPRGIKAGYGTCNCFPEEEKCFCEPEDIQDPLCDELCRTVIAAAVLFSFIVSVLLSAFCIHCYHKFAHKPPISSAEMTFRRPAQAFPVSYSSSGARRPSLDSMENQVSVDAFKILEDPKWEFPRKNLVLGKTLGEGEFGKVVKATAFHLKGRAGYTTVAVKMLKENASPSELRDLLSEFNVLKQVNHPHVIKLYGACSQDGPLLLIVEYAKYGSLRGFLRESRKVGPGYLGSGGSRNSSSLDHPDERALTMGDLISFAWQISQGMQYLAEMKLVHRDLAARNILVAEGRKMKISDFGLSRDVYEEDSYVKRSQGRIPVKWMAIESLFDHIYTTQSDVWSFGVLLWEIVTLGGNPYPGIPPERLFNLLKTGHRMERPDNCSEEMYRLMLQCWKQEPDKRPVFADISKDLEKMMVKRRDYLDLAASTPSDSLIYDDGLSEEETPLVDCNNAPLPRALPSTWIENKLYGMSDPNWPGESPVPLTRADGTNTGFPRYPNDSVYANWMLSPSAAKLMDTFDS
Sequence of Muscarinic acetylcholine receptor M3 (P20309 whole entry): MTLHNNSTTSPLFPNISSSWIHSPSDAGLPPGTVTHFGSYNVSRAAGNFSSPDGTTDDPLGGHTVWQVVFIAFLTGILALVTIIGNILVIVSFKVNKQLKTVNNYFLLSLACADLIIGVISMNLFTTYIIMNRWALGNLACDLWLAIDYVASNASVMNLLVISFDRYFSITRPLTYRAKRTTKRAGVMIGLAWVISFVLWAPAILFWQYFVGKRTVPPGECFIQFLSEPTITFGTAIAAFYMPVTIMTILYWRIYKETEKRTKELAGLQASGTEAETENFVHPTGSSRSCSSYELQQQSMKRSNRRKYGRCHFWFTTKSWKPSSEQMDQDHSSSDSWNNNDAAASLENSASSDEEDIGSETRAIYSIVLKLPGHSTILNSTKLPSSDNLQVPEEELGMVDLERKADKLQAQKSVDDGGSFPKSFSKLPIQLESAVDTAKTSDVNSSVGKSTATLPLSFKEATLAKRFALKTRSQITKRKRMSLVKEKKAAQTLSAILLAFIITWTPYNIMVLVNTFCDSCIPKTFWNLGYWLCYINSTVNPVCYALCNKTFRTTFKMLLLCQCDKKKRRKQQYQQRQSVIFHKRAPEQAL
Sequence of Tyrosine-protein kinase CSK (Homo sapiens) (P41240 2-450 limits assumed): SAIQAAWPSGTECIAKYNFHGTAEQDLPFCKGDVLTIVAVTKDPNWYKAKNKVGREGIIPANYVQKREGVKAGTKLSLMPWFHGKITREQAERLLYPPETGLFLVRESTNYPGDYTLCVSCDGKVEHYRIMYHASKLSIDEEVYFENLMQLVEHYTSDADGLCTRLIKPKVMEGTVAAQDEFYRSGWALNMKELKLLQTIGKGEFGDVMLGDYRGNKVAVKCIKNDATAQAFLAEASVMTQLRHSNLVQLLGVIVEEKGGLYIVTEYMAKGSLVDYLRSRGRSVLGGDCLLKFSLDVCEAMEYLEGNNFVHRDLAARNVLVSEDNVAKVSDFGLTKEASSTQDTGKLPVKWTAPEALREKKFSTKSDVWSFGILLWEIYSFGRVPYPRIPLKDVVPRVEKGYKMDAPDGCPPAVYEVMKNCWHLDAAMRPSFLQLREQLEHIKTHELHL
Sequence of Proto-oncogene tyrosine-protein kinase receptor Ret (Homo sapiens), P07949 [Y791F] (P07949 whole entry Y791F): as the sequence (P07949 whole entry) above, with Y791F counted along it
Sequence of Proto-oncogene tyrosine-protein kinase receptor Ret (Homo sapiens), P07949 [V804L] (P07949 whole entry V804L): as the sequence (P07949 whole entry) above, with V804L counted along it
Sequence of Mitogen-activated protein kinase 14 (Q16539 whole entry): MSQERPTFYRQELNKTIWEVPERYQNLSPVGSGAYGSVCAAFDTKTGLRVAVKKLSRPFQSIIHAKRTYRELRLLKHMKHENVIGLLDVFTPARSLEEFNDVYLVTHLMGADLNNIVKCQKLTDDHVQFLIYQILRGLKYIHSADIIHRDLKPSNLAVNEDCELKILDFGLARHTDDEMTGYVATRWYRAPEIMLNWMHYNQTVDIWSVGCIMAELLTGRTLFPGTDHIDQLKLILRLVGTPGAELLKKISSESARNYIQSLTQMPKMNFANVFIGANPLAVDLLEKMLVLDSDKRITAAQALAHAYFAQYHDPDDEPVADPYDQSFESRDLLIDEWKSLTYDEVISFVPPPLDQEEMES

The molecule `COCC(=O)NC/C=C/c1ccc2ncnc(Nc3ccc(Oc4ccc(C)nc4)c(C)c3)c2c1` [CP-724714] yielded a % of control in assay [1] of 59%. `O=C(NOC[C@H](O)CO)c1ccc(F)c(F)c1Nc1ccc(I)cc1F` gave a % of control in assay [2] of 93%. As for `CNC(=O)Nc1ccc(-c2nc(N3CC4CCC(C3)O4)c3cnn(C4CCC5(CC4)OCCO5)c3n2)cc1`, the % of inhibition in assay [3] came out at 4%; in assay [4], 2%; in assay [5] it was 2%. In turn, `CC[C@@H]1[C@H](F)C(=O)N[C@@H]1COc1nccc2cc(C(N)=O)c(OC)cc12` [ZIMLOVISERTIB] gave a % of inhibition in assay [6] of 56.9%. For `CN(C)C/C=C/C(=O)Nc1ccc(C(=O)N2CCCC(Nc3ncc(Cl)c(-c4c[nH]c5ccccc45)n3)C2)cc1` (stereo unspecified), in [7], the % of control is 52%. `Cc1ccc(-c2ccc3c(ccc4sc5c(c43)NC[C@@H](C)NC5=O)n2)cn1` yielded a % of inhibition in assay [8] of 0%. As for `CCC(=O)N1CC[C@H](Nc2ncnc3c2CN(c2cnc(OC)c(C(F)(F)F)c2)CC3)C1` [LENIOLISIB], the IC50 in [9] is over 30 µM. Take `CN(C)CCOc1ccc(-c2nc(-c3ccncc3)c(-c3ccc4c(c3)CC/C4=N\O)[nH]2)cc1`: the % of control in assay [10] was determined as 88%; in assay [11], 3.8%.
